Biological target: NLRP3 inflammasome (Homo sapiens, UniProt Q96P20)
Assay: THP-1 ASC-GFP speck assay
Assay type: cell-based
Parameters: host or cells: THP-1 ASC-GFP cells, PMA-differentiated, LPS-primed, nigericin-stimulated
Conditions: THP-1 ASC-GFP cells, PMA differentiated, LPS primed, 10 μM nigericin; read-out: THP1 ASC Speck IC50
Method: THP-1 ASC-GFP cell line was purchased from Invivogen, San Diego, for inflammasome activation assay. THP-1 ASC-GFP cells stably express a 37.6 kDa ASC::GFP fusion protein that enables monitoring of spec formation by microscopy after activation of NLRP3 dependent inflammasome pathway. Cells were maintained at a density of 600,000 cells/mL in growth media consisting of RPMI 1640, 2 mM L-glutamine, 25 mM HEPES and 10% heat inactivated fetal bovine serum at 37° C. and 5% CO2. Cells were passaged every 3-4 days and used for assays for up to 20 passages.
THP-1 ASC-GFP cells were collected by centrifuging cells at 800 RPM for 5 minutes. Cell culture supernatant was removed and cells were re-suspended in fresh media at density of 1×10^6 cells/mL in assay media consisting of RPMI 1640, 2 mM L-glutamine, 25 mM HEPES and 10% heat inactivated fetal bovine serum. Phorbol 12-myristate 13-acetate (PMA) (Invivogen, tlrl-pma) was added to the cell suspension at a final concentration of 500 ng/ml and mixed thoroughly. 40,000 cells were added per well of a 384 well plate and differentiated into macrophages overnight at 37° C. and 5% CO2. Cells were primed with 1 μg/mL of lipopolysaccharide (Invivogen Ultrapure lipopolysaccharide from E. coli, tlrl-3pelps) in assay media for 3 hours at 37° C. and 5% CO2. After priming, media was removed and THP-1 ASC-GFP cells were preincubated with serially diluted test compounds with starting concentration of 40 μM followed by 2-fold dilution for a 20-point curve or vehicle (DMSO) for 30 min in assay media at 37° C. and 5% CO2. Cells were then stimulated with 10 μM nigericin (Invivogen, tlrl-nig-5) for 90 min at 37° C. and 5% CO2 to activate NLRP3 dependent inflammasome pathway and spec formation. After stimulation, cells were fixed with 4.8% paraformaldehyde (Electron Microscopy Sciences #15710-S) and incubated at room temperature for 15 min. Cells were then washed 3-times with 100 μL of phosphate buffered saline and permeabilized in the presence of premeablization/block buffer for 20 min at room temperature. Cells were then washed 3-times with 100 μL phosphate buffered saline and incubated for 1 hr at room temperature in the presence of hoechst. After staining with Hoechst, cells were washed 3-times with 100 μL phosphate buffered saline and imaged for ASC spec formation.
THP-1 ASC-GFP cells were imaged in 488 and Hoechst channels. Hoechst channel was used for cell count and 488 channel was used to identify number of GFP ASC specks in imaged fields. Percentage of cells with a spec was calculated by dividing the number of GFP positive spots by total number of cells.

Chain of NLRP3 inflammasome (Q96P20 whole entry): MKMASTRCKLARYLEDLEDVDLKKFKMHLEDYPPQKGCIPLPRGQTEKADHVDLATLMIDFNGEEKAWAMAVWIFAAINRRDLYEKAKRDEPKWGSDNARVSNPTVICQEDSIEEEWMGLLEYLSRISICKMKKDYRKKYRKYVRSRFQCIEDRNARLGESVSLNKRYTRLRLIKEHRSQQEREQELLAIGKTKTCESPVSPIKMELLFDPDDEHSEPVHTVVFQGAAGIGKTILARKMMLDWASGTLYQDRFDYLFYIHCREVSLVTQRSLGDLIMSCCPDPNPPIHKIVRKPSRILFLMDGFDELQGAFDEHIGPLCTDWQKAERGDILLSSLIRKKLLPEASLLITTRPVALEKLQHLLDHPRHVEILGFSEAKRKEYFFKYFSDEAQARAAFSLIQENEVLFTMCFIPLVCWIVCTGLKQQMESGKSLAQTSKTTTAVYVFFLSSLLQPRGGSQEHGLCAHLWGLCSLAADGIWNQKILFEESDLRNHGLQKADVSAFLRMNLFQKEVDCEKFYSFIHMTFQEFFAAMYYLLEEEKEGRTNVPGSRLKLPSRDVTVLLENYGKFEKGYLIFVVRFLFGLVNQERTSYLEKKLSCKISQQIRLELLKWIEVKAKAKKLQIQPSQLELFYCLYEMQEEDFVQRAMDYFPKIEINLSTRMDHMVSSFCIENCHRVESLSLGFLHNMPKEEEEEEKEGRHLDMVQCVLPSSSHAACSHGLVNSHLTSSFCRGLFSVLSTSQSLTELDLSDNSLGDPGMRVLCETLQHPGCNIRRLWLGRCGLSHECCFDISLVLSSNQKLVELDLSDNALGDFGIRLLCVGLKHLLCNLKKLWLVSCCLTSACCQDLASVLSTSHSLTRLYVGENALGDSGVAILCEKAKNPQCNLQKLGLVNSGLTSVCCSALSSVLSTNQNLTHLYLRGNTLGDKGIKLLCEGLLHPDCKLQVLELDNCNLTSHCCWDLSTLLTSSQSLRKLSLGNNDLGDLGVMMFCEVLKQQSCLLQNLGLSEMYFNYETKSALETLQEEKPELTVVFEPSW

SMILES | IC50 [µM]
CC1(C)COc2c(S(=O)(=NC(=O)Nc3c4c(cc5c3CCC5)CCC4)NC#N)cnn2C1 (racemic) [Example 94, N-cyano-N′-((1,2,3,5,6,7-hexahydro-s-indacen-4-yl)carbamoyl)-6,6-dimethyl-6,7-dihydro-5H-pyrazolo[5,1-b][1,3]oxazine-3-sulfonimidamide] | 0.36
NS(=O)(=NC(=O)Nc1c2c(cc3c1CCC3)CCC2)c1cnn2c1COCCC2 (single isomer, unassigned) [Example 61] | > 20
NS(=O)(=NC(=O)Nc1c2c(cc3c1CCC3)CCC2)c1cnn2c1COCCC2 (single isomer, unassigned) [Example 62] | 0.92
CC1CCOc2c(S(N)(=O)=NC(=O)Nc3c4c(cc5c3CCC5)CCC4)cnn2C1 (single isomer, unassigned) [Example 65] | 0.34
N#CNS(=O)(=NC(=O)Nc1c2c(cc3c1CCC3)CCC2)c1cnn2c1OCCC2 (single isomer, unassigned) [Example 69] | 0.03
CNCCOc1cc(C(C)C)c(NC(=O)N=S(N)(=O)c2cnn3c2OCCC3)c(C(C)C)n1 (single isomer, unassigned) [Example 70] | > 20
CNCCOc1cc(C(C)C)c(NC(=O)N=S(N)(=O)c2cnn3c2OCCC3)c(C(C)C)n1 (single isomer, unassigned) [Example 71] | > 20
NS(=O)(=NC(=O)Nc1c2c(cc3c1CCC3)CCC2)c1cnn2c1NCCC2 (single isomer, unassigned) [Example 72] | 2.5
NS(=O)(=NC(=O)Nc1c2c(cc3c1CCC3)CCC2)c1cnn2c1NCCC2 (single isomer, unassigned) [Example 73] | > 20
CC1CCn2ncc(S(N)(=O)=NC(=O)Nc3c4c(cc5c3CCC5)CCC4)c2OC1 (single isomer, unassigned) [Example 74] | > 20
CC1CCn2ncc(S(N)(=O)=NC(=O)Nc3c4c(cc5c3CCC5)CCC4)c2OC1 (single isomer, unassigned) [Example 75] | 15
COc1cc(C(C)C)c(NC(=O)N=S(N)(=O)c2cnn3c2OCC(C)(C)C3)c(C(C)C)n1 (single isomer, unassigned) [Example 76] | 2.6
COc1cc(C(C)C)c(NC(=O)N=S(N)(=O)c2cnn3c2OCC(C)(C)C3)c(C(C)C)n1 (single isomer, unassigned) [Example 77] | > 20
CC1CCn2ncc(S(N)(=O)=NC(=O)Nc3c4c(cc5c3CCC5)CCC4)c2OC1 (single isomer, unassigned) [Example 78] | 0.093
CC1CCn2ncc(S(N)(=O)=NC(=O)Nc3c4c(cc5c3CCC5)CCC4)c2OC1 (single isomer, unassigned) [Example 79] | 1
CC1(C)COc2c(S(N)(=O)=NC(=O)Nc3c4c(cc5c3CCC5)CCC4)cnn2C1 (single isomer, unassigned) [Example 80] | 4.5
CC1(C)COc2c(S(N)(=O)=NC(=O)Nc3c4c(cc5c3CCC5)CCC4)cnn2C1 (single isomer, unassigned) [Example 81] | 0.02
CNC1COc2c(S(N)(=O)=NC(=O)Nc3c4c(c(F)c5c3CCC5)CCC4)cnn2C1 (single isomer, unassigned) [Example 82] | 0.27
CNC1COc2c(S(N)(=O)=NC(=O)Nc3c4c(c(F)c5c3CCC5)CCC4)cnn2C1 (single isomer, unassigned) [Example 83] | 0.008
CNCc1cc(C(C)C)c(NC(=O)N=S(N)(=O)c2cnn3c2OCCC3)c(C(C)C)n1 (single isomer, unassigned) [Example 84] | > 20
CNCc1cc(C(C)C)c(NC(=O)N=S(N)(=O)c2cnn3c2OCCC3)c(C(C)C)n1 (single isomer, unassigned) [Example 85] | > 20
COC1CCn2ncc(S(N)(=O)=NC(=O)Nc3c4c(cc5c3CCC5)CCC4)c2OC1 (single isomer, unassigned) [Example 86] | > 20
COC1CCn2ncc(S(N)(=O)=NC(=O)Nc3c4c(cc5c3CCC5)CCC4)c2OC1 (single isomer, unassigned) [Example 87] | 2.9
COC1CCOc2c(S(N)(=O)=NC(=O)Nc3c4c(cc5c3CCC5)CCC4)cnn2C1 (single isomer, unassigned) [Example 88] | 7.7

SMILES | IC50 [µM]
COC1CCOc2c(S(N)(=O)=NC(=O)Nc3c4c(cc5c3CCC5)CCC4)cnn2C1 (single isomer, unassigned) [Example 89] | > 20
COC1CCOc2c(S(N)(=O)=NC(=O)Nc3c4c(cc5c3CCC5)CCC4)cnn2C1 (single isomer, unassigned) [Example 90] | 0.32
COC1CCOc2c(S(N)(=O)=NC(=O)Nc3c4c(cc5c3CCC5)CCC4)cnn2C1 (single isomer, unassigned) [Example 91] | 0.49
COC1CCn2ncc(S(N)(=O)=NC(=O)Nc3c4c(cc5c3CCC5)CCC4)c2OC1 (single isomer, unassigned) [Example 92] | 8.2
COC1CCn2ncc(S(N)(=O)=NC(=O)Nc3c4c(cc5c3CCC5)CCC4)c2OC1 (single isomer, unassigned) [Example 93] | 0.36
CC(C)c1nn(CC(F)F)c(C(C)C)c1NC(=O)N=S(N)(=O)c1cnn2c1OCCC2 (single isomer, unassigned) [Example 96] | > 20
CC(C)c1nn(CC(F)F)c(C(C)C)c1NC(=O)N=S(N)(=O)c1cnn2c1OCCC2 (single isomer, unassigned) [Example 97] | 1.3
CCn1nc(C(C)C)c(NC(=O)N=S(N)(=O)c2cnn3c2OCCC3)c1C(C)C (single isomer, unassigned) [Example 98] | > 20
CCn1nc(C(C)C)c(NC(=O)N=S(N)(=O)c2cnn3c2OCCC3)c1C(C)C (single isomer, unassigned) [Example 99] | 1.7
NS(=O)(=NC(=O)Nc1c2c(cc3c1CCC3)CCC2)c1cnn2c1SCCC2 (single isomer, unassigned) [Example 100] | 2.7
NS(=O)(=NC(=O)Nc1c2c(cc3c1CCC3)CCC2)c1cnn2c1SCCC2 (single isomer, unassigned) [Example 101] | > 20
COc1cc(C(C)C)c(NC(=O)N=S(N)(=O)c2cnn3c2OCCC3)c(C(C)C)n1 (single isomer, unassigned) [Example 102] | 5.1
COc1cc(C(C)C)c(NC(=O)N=S(N)(=O)c2cnn3c2OCCC3)c(C(C)C)n1 (single isomer, unassigned) [Example 103] | > 20
CNC1CCOc2c(S(N)(=O)=NC(=O)Nc3c4c(cc5c3CCC5)CCC4)cnn2C1 (single isomer, unassigned) [Example 105] | 9.9
CNC1CCOc2c(S(N)(=O)=NC(=O)Nc3c4c(cc5c3CCC5)CCC4)cnn2C1 (single isomer, unassigned) [Example 106] | 0.15
CN1CCCn2ncc(S(N)(=O)=NC(=O)Nc3c4c(cc5c3CCC5)CCC4)c21 (single isomer, unassigned) [Example 107] | 9
CN1CCCn2ncc(S(N)(=O)=NC(=O)Nc3c4c(cc5c3CCC5)CCC4)c21 (single isomer, unassigned) [Example 108] | > 20
CNC1CCOc2c(S(N)(=O)=NC(=O)Nc3c4c(cc5c3CCC5)CCC4)cnn2C1 (single isomer, unassigned) [Example 109] | 5.7
CNC1CCOc2c(S(N)(=O)=NC(=O)Nc3c4c(cc5c3CCC5)CCC4)cnn2C1 (single isomer, unassigned) [Example 110] | 0.12
CN(C)[C@@H]1COc2c([S@](=O)(=NC(=O)Nc3c4c(c(F)c5c3CCC5)CCC4)NC#N)cnn2C1 (single isomer, unassigned) [Example 111] | 0.1
CO[C@H]1CCOc2c([S@@](=O)(=NC(=O)Nc3c4c(cc5c3CCC5)CCC4)NC#N)cnn2C1 (single isomer, unassigned) [Example 112] | 0.61
CC(C)c1nn(CC2CC2)c(C(C)C)c1NC(=O)N=S(N)(=O)c1cnn2c1OCCC2 (single isomer, unassigned) [Example 113] | > 20
CC(C)c1nn(CC2CC2)c(C(C)C)c1NC(=O)N=S(N)(=O)c1cnn2c1OCCC2 (single isomer, unassigned) [Example 114] | 4.4
COC1COc2c(S(=O)(=NC(=O)Nc3c4c(cc5c3CCC5)CCC4)NC(C)=O)cnn2C1 (single isomer, unassigned) [Example 115] | 2.5
